# Like-named read-outs stand apart in the source and are kept apart here.
# Tests used:
# [1] = test system: IgG1-mediated bronchoconstriction; settings: actively sensitized guinea pigs, cited from earlier work
# [2] = test system: acetylcholine-induced bronchoconstriction; settings: text b108; cited from earlier work
# [3] = test system: tuberculin reaction; settings: intravenous, cited from earlier work
# [4] = test system: leukotriene D4 (LTD4) generation; settings: mechanism of action; cited from earlier work
# [5] = test system: platelet activating factor-induced bronchoconstriction; settings: guinea pigs, intravenous doses of 5 and 20 mg/kg; cited from earlier work
# [6] = test system: airway smooth muscle; settings: mechanism of action; cited from earlier work
# [7] = test system: leukotriene D4-induced bronchoconstriction; settings: guinea pigs, intravenous doses of 5 and 20 mg/kg; cited from earlier work
# [8] = test system: histamine-induced bronchoconstriction; settings: cited from earlier work
# [9] = test system: 2,4-dinitro-1 -fluorobenzene-induced contact sensitivity; settings: intravenous, cited from earlier work
# [10] = test system: mast cells; settings: cited from earlier work
# [11] = test system: passive cutaneous anaphylaxis mediated by IgE; settings: rat, cited from earlier work
# [12] = test system: bronchoconstriction; settings: guinea pigs passively sensitized with rabbit IgG, intravenously; cited from earlier work
# [13] = test system: allergic reactions; settings: variety of in vivo models; cited from earlier work
# [14] = test system: cyclic nucleotide phosphodiesterase; settings: cited from earlier work
# [15] = test system: IgE-mediated constriction; settings: actively sensitized guinea pigs, cited from earlier work
# [16] = test system: Arthus reaction; settings: cited from earlier work
# [17] = stability of amlexanox in aqueous solution; assay type: physicochemical; settings: under certain conditions, solution pH greater than about 8.0
# Text: (§1) The molecule contains a free carboxylate group, and the water solubility of amlexanox can be increased by raising the pH of the dissolution solution. However, caution is necessary using this approach as degradation of amlexanox may take place at high pH. […] Thus the formulation of a viscous, mucoadhesive solution of amlexanox which is also stable represented a major challenge.
# [18] = test system: inflammation; settings: in vivo; cited from earlier work
# [19] = test system: cyclo-oxygenase products; settings: whole tissue studies; cited from earlier work
# [20] = test system: IgE-mediated bronchoconstriction; settings: rats, cited from earlier work
# [21] = water solubility of amlexanox; assay type: physicochemical
# Text: as §1
# [22] = test system: leukotrienes; settings: in vitro; cited from earlier work
smiles,measurement,setting,value
"CC(C)c1ccc2oc3nc(N)c(C(=O)O)cc3c(=O)c2c1 [Amlexanox, 2-amino-7-(1 methylethyl)-5-oxo-5H[1]benzopyrano[2,3-b]pyridine-3-carboxylic acid]","ED50, IgG1-mediated bronchoconstriction",[1]; intravenous,8.2 mg/kg
same,"ED50, IgG1-mediated bronchoconstriction",[1]; oral,160 mg/kg
same,effect on acetylcholine-induced bronchoconstriction,[2],not active
same,inhibition of the tuberculin reaction,[3]; 5 mg/kg,not
same,inhibition of the tuberculin reaction,[3]; 20 mg/kg,significant inhibition
same,leukotriene D4 (LTD4) generation,[4],Inhibition
same,suppression of bronchoconstriction induced by platelet activating factor,[5],dose-related suppression
same,contractile response of airway smooth muscle to LTD4,[6],Antagonism
same,suppression of bronchoconstriction induced by leukotriene D4,[7],dose-related suppression
same,bronchoconstriction induced by histamine,[8]; Table 1,Has no effect on bronchoconstriction induced by histamine or
same,effect on histamine-induced bronchoconstriction,[8]; text b108,slightly suppressed
same,inhibition of contact sensitivity,[9]; 5 mg/kg,not
same,inhibition of contact sensitivity,[9]; 20 mg/kg,significant inhibition
same,release of inflammatory mediators from mast cells,"[10]; antigen-antibody induced release, ionophore induced release",Potent inhibitor of the release of inflammatory mediators from mast cells
same,immunologically-stimulated release of histamine from mast cells,"[10]; mechanism of action, in vivo and in vitro studies",Inhibition
same,"ED50, inhibition of passive cutaneous anaphylaxis",[11]; intravenous,0.032 mg/kg
same,"ED50, inhibition of passive cutaneous anaphylaxis",[11]; oral,0.73 mg/kg
same,"ED50, inhibition of bronchoconstriction",[12],9 mg/kg
same,anti-allergic activity,[13],Potent ant-allergic agent demonstrated in a variety of in vivo models
same,inhibition of cyclic nucleotide phosphodiesterase,[14],Potent inhibitor of cyclic nucleotide phosphodiesterase
same,inhibition of IgE-mediated constriction,"[15]; 20 mg/kg, another study",significant inhibition
same,"ED50, inhibition of IgE-mediated constriction",[15]; one study,14.5 mg/kg
same,inhibition of the Arthus reaction,[16]; intravenous doses of 5 and 20 mg/kg given immediately after antigen challenge,moderate activity
same,inhibition of the Arthus reaction,[16]; oral doses of 50 and 10 mg/kg given 1 or 3 hours after antigen challenge,moderate activity
same,degradation in aqueous solution,[17],degrade slowly
same,anti-inflammatory activity,[18],Weak anti-inflammatory activity in vivo
same,generation of cyclo-oxygenase products,[19],Does not inhibit generation of cyclo-oxygenase products in whole
same,suppression of IgE-mediated bronchoconstriction,[20]; intravenous dose of 1 mg/kg,significantly suppressed
same,suppression of IgE-mediated bronchoconstriction,[20]; oral dose of 10 mg/kg,significantly suppressed
same,water solubility,[21],poorly water soluble
same,formation of leukotrienes,[22],"Inhibits formation of leukotrienes, in vitro"

# Source: US20020103219A1, “Stable viscous liquid formulations of amlexanox for the prevention and treatment of mucosal diseases and disorders” (priority 2000, published 2002)
